Series [1] has as its system HER2+ JIMT-1 breast cancer cells. Description: In vitro cytotoxicity assay (PrestoBlue), Example 9 (FIG. 7). To be noted: Homo sapiens. It counts as cell-based. On the procedure:
(§1) HER2+ SK-BR-3 breast cancer cells (ATCC), HCC1954 breast cancer cells (CRL-2338, ATCC), JIMT-1 breast cancer cells (DSMZ) and SKOV-3 ovarian cancer cells (ATCC) were cultured essentially according to the providers' instructions. After incubation with ADCs, cell viability was determined using PrestoBlue reaction using manufacturer's instructions. Cell viability data data was transferred to GraphPad Prism to determine IC50 values. Exatecan (mesylate salt) and DXd (free deruxtecan payload) were purchased from MedChemExpress.

In series [2] the test system is HER2+ SKOV-3 ovarian cancer cells. Description: In vitro cytotoxicity assay (PrestoBlue), Example 9 (FIG. 8). It counts as cell-based. To be noted: Homo sapiens, SK-OV-3. Here is the method: as §1
For series [3], the system named is HER2+ HCC1954 breast cancer cells. Put plainly: In vitro cytotoxicity assay (PrestoBlue), Example 9 (FIG. 6). It counts as cell-based. To be noted: Homo sapiens. On the procedure: as §1
Series [4] deals with HER2+ SK-BR-3 breast cancer cells. Put plainly: In vitro cytotoxicity assay (PrestoBlue), Example 9 (FIG. 5). It counts as cell-based. To be noted: Homo sapiens. On the procedure:
as §1

Another series deals with MOLM-13 cells. Put plainly: MOLM-13 xenograft model. To be noted: for signs of toxicity: single i.v. dose, clinical signs and general behavior. On the procedure:
The study was performed at the TCDM, University of Turku, Finland, according to the appropriate ethical committee approval. Cells for inoculation to mice were prepared in vigorous exponential growth phase. 2 million MOLM-13 cells in 50% Matrigel were inoculated s.c. to the flank of each mouse (female athymic nude mice between 8-10 weeks of age). Clinical signs and general behavior of the animals were observed regularly. […] Tumor growth was followed by palpation. After caliper measurement, tumor volume was calculated according to 0.5×length×width^2. […] Mice were evenly divided into study groups, 6 mice in each group, so that each group received similar distribution of different-sized tumors and the average tumor volumes were similar in each group. Intravenous (i.v.) treatment in PBS was given once on day 1 of treatment as a single dose regimen (on day 8 after tumor inoculation). The experiment lasted to day 46 after treatment (day 54 after tumor inoculation).

The next series deals with SK-MEL-30 melanoma cells. Description: SK-MEL-30 human melanoma xenograft model. It counts as in vivo, athymic mice. To be noted: single i.v. 10 mg/kg dose. On the procedure: SK-MEL-30 human melanoma xenograft model (FIG. 4A): The animal model were performed at the University of Helsinki, Finland, according to the appropriate ethical committee approval. SK-MEL-30 melanoma cells, 2 million cells/mouse, were inoculated subcutaneously (s.c.) to athymic mice.

Series [5] in a line: Maleimide self-stabilization in storage formulation. It counts as physicochemical. To be noted: storage formulation of PBS pH 7.4.
Series [6] is described as follows: Aggregation status by size-exclusion chromatography (SEC-HPLC). It counts as physicochemical. Here is the method:
Aggregation status of FLExM01 was evaluated by size-exclusion chromatography (SEC-HPLC; FIG. 2A), showing very low aggregation with high-molecular weight aggregate level of 1.6%. Drug-to-Antibody Ratio (DAR) was determined by reversed-phase chromatography (RP-HPLC; FIG. 2B), showing homogeneous conjugation to DAR=8.

Series [7] is described as follows: Hydrophobic interaction chromatography (HIC-HPLC) of flanvotumab ADCs. It counts as physicochemical. To be noted: closer to naked antibody = more hydrophilic. An excerpt:
Flanvotumab-deruxtecan ADC was generated essentially similarly as FLExM above using deruxtecan linker-payload (DxM, MedChemExpress, Sweden; Scheme 1.4).
HIC-HPLC analysis using TSKgel ButylNPR column was done with Äkta HPLC purifier system.

The mark [8] stands for this setting: single i.v. 10 mg/kg dose, day 54 after inoculation.

Read-outs that look alike come from different tables or passages of the source.

With `CC[C@@]1(O)C(=O)OCc2c1cc1n(c2=O)Cc2c-1nc1cc(F)c(C)c3c1c2[C@@H](NC(=O)CO)CC3` [DXd, 2-hydroxyacetoyl exatecan], the IC50 (as a rule, the concentration at which inhibition is half-maximal) was 18 nM in series [1], 9.5 nM in series [2], 5 to 8 nM in series [3] (HCC1954) and 4.3 nM in series [4].

As for `CC[C@@]1(O)C(=O)OCc2c1cc1n(c2=O)Cc2c-1nc1cc(F)c(C)c3c1c2[C@@H](N)CC3` [exatecan, Exatecan], the IC50 was 3.1 nM in series [1]; 4.7 nM in series [2]; 5 to 8 nM in series [3] (HCC1954 cells, FIG. 6, read-out: IC50); 0.87 nM in series [4].

Take “LNDxM: lintuzumab-deruxtecan ADC DAR=8, maleimides not stabilized; 01-03 are batches [reference compound]”: the “deaths due to tumor growth, %” value in the series on MOLM-13 cells (single i.v. 10 mg/kg dose) amounted to 17%. For the same molecule, in the series on MOLM-13 cells (setting [8]), the “tumor-free mice at the end of the study (mice out of 6)” value is listed as 2/6 and the “tumor-free mice at the end of the study, %” value came out at 33%. Besides, the “deaths due to tumor growth (mice out of 6)” value in the series on MOLM-13 cells (single i.v. 10 mg/kg dose, death on day 47 after tumor inoculation) was “⅙”. In addition, the signs of toxicity result in the series on MOLM-13 cells is recorded as “No signs of toxicity were recorded”.

In the case of “Lintuzumab: humanized recombinant antibody produced in CHO cells; anti-CD33”, in the series on MOLM-13 cells (single i.v. 10 mg/kg dose, s.c. tumors about 120 mm^3), the “tumor growth inhibition (in words)” value is recorded as “only slight inhibitory activity to tumor growth”. In addition, in the series with MOLM-13 cells, the signs of toxicity result was “No signs of toxicity were recorded”.

B1: FLExM01: flanvotumab-exatecan ADC with ExM linker-payload, DAR≈8 (conjugate, chains of the INN, looked up)
VH: QVQLVQSGSELKKPGASVKISCKASGYTFTSYAMNWVRQAPGQGLESMGWINTNTGNPTYAQGFTGRFVFSMDTSVSTAYLQISSLKAEDTAIYYCAPRYSSSWYLDYWGQGTLVTVSS
VL: EIVLTQSPATLSLSPGERATLSCRASQSVSSYLAWYQQKPGQAPRLLIYDASNRATGIPARFSGSGSGTDFTLTISSLEPEDFAVYYCQQRSNWLMYTFGQGTKLEIK
modifications: exatecan ExM linker-payload, DAR 8
Turning to B1, the toxicities observed result with SK-MEL-30 melanoma cells is reported as “No toxicities were observed”. In the series on SK-MEL-30 melanoma cells (s.c. tumors about 200 mm^3), the “tumor growth inhibition (in words)” value was “inhibited markedly more in the ADC-treated mice than either the antibody-treated or non-treated mice”. Further, the “maleimide self-stabilization (in words)” value in series [5] is reported as “self-stabilized by maleimide hydrolysis”. Also, the “high-molecular weight aggregate level” value in series [6] (SEC-HPLC) is 1.6%. For the same molecule, the HIC-HPLC elution volume in series [7] was 6.5 mL.

B2: FLDxM01: Flanvotumab-deruxtecan ADC, DAR≈8 (conjugate, chains of the INN, looked up)
VH: QVQLVQSGSELKKPGASVKISCKASGYTFTSYAMNWVRQAPGQGLESMGWINTNTGNPTYAQGFTGRFVFSMDTSVSTAYLQISSLKAEDTAIYYCAPRYSSSWYLDYWGQGTLVTVSS
VL: EIVLTQSPATLSLSPGERATLSCRASQSVSSYLAWYQQKPGQAPRLLIYDASNRATGIPARFSGSGSGTDFTLTISSLEPEDFAVYYCQQRSNWLMYTFGQGTKLEIK
modifications: deruxtecan, DAR 8
In the case of B2, the “aggregates (in words)” value in series [6] (MALDI-TOF MS, SEC-HPLC and RP-HPLC) is “low aggregates”. Besides, the HIC-HPLC elution volume in series [7] came to 7.8 mL.

B3: Flanvotumab: naked antibody, parent of the anti-TYRP-1 ADC (antibody, chains of the INN, looked up, V domains shown)
VH: QVQLVQSGSELKKPGASVKISCKASGYTFTSYAMNWVRQAPGQGLESMGWINTNTGNPTYAQGFTGRFVFSMDTSVSTAYLQISSLKAEDTAIYYCAPRYSSSWYLDYWGQGTLVTVSS
VL: EIVLTQSPATLSLSPGERATLSCRASQSVSSYLAWYQQKPGQAPRLLIYDASNRATGIPARFSGSGSGTDFTLTISSLEPEDFAVYYCQQRSNWLMYTFGQGTKLEIK
As to B3, in the series on SK-MEL-30 melanoma cells, the toxicities observed entry is “No toxicities were observed”.

The record behind these values is patent publication US20240374749A1, “ANTIBODY-EXATECAN CONJUGATES” (Glykos Finland Oy, priority 2023, published 2024).
